In ChEMBL document CHEMBL5308541, “MAIP: An Open-Source Tool to Enrich High-Throughput Screening Output and Identify Novel, Druglike Molecules with Antimalarial Activity” (ACS Med Chem Lett, 2023):
pIC50: −log10 of the molar value. Values joined by “and” are separate entries in the source; they are usually repeats but may differ in a detail not shown here. Equal entries are not always repeated.

Experiments:
Plasmodium falciparum [1] = assay: Hit confirmation in dose-response curve in NF54 nanoGlo assay, at 12h; format: functional, organism-based, Erythrocyte; design: timepoint 12 hour; settings: Plasmodium falciparum, NF54, Erythrocyte, 12 h
Plasmodium falciparum [2] = assay: Hit confirmation in dose-response curve in NF54 pLDH assay, at 72h; format: functional, organism-based, Erythrocyte; design: timepoint 72 hour; settings: Plasmodium falciparum, NF54, Erythrocyte, 72 h
[3] = Hit confirmation in dose-response curve in HepG2 cytotoxicity assay, at 72h; format: toxicity, cell-based, Homo sapiens; design: timepoint 72 hour; settings: human, HepG2 cells
Plasmodium falciparum [4] = assay: Hit confirmation in dose-response curve in Dd2 pLDH assay, at 72h; format: functional, organism-based, Erythrocyte; design: timepoint 72 hour; settings: Plasmodium falciparum, Dd2, Erythrocyte, 72 h
Plasmodium falciparum [5] = assay: Hit confirmation in dose-response curve in NF54 nanoGlo assay, at 72h; format: functional, organism-based, Erythrocyte; design: timepoint 72 hour; settings: Plasmodium falciparum, NF54, Erythrocyte, 72 h
Plasmodium falciparum [6] = assay: Re-testing in dose-response curve in 3D7 pLDH assay, at 72h; format: functional, organism-based, Erythrocyte; design: timepoint 72 hour
[7] = (§1) Re-testing in dose-response curve in HepG2 cytotoxicity assay, at 72h; format: toxicity, cell-based, Homo sapiens; design: timepoint 72 hour; settings: human, HepG2 cells
HepG2 = assay: as §1; format: toxicity, cell-based, Homo sapiens; design: timepoint 72 hour; settings: hepg2
Plasmodium falciparum [8] = assay: Re-testing in dose-response curve in Dd2 pLDH assay, at 72h; format: functional, organism-based, Erythrocyte; design: timepoint 72 hour
[9] = Plasmodium falciparum, 3D7, Erythrocyte, 72 h
[10] = Plasmodium falciparum, Dd2, Erythrocyte, 72 h

| SMILES | pIC50 (Plasmodium falciparum [1]) | pIC50 (Plasmodium falciparum [2]) | IC50 at 72 h [3] [µM] | pIC50 (Plasmodium falciparum [4]) | pIC50 (Plasmodium falciparum [5]) | pIC50 (Plasmodium falciparum [6]; [9]) | pIC50 (Plasmodium falciparum [6]; erythrocyte) | IC50 at 72 h [7] [µM] | pIC50 (HepG2) | pIC50 (Plasmodium falciparum [8]; [10]) | pIC50 (Plasmodium falciparum [8]; erythrocyte) | IC50 (Plasmodium falciparum [6]; erythrocyte) |
| --- | --- | --- | --- | --- | --- | --- | --- | --- | --- | --- | --- | --- |
| Cc1cnccc1NCCNCc1ccc(OC(C)C)c(Cl)c1 | 5.02 | 5.81 | > 10 | 6.01 | 5.98 | 6.36 | 6.30 | 6.65 | 5.16 |  |  |  |
| CN1CCC(Oc2ccc(NC(=O)c3cn4ccnc4s3)cn2)CC1 | 5.16 | 5.80 | > 10 | 6.03 | 5.89 | 5.67 | 5.63 and 5.86 | > 25 | 4.73 |  |  |  |
| Brc1ccc2[nH]c3c(c2c1)CCCC3NC1CCc2[nH]cnc2C1 (stereo not drawn) | 5.76 | 5.63 | > 10 | 5.77 | 5.87 | ~5.52 | 5.47 | 4.1 | 5.37 |  |  |  |
| COc1ccc2c(O)c(Br)c(C)nc2c1 | < 5.00 | 5.83 | > 10 | 6.06 | 6.12 | 7.08 | 7.04 | 21.6 | 4.66 |  |  |  |
| CCN1C[C@H](Nc2nc(C)nc3sccc23)[C@@H](OC)C1 | 5.89 | 6.00 | > 10 | 6.13 | 6.03 | < 4.60 |  | > 25 |  |  |  |  |
| CCOc1cc(C(=O)NC2CCN(CC3CCCC3)CC2)cc(-c2ccccc2)c1OC | 5.43 | 5.41 | > 10 | 5.80 | 5.83 |  |  | 10 | 4.99 | 4.94 | 4.97 and 5.08 and 5.09 | 593 nM [middle of 6 runs] |
| O=C(NC1CCN(CCOc2ccc(Cl)cc2)CC1)c1c[nH]c2ccncc2c1=O | 5.50 | 5.85 | > 10 | 5.84 | 5.95 |  | 6.22 and 6.05 |  |  |  |  |  |
| CC1(N2CCC2)CCC(NC[C@H]2CCN(Cc3ccccc3)C2)CC1 (stereo partly drawn) | 5.04 | 5.58 | > 10 | 5.74 | 5.49 |  | 5.79 and 6.21 and 6.20 |  |  | 5.80 | 5.75 and 5.80 |  |
| Cc1c(CN2CCC(O)(Cn3ccnc3)CC2)[nH]c2c(Cl)cccc12 | 5.58 | 5.71 | > 10 |  | 5.77 |  | 5.78 and 5.88 and 5.86 |  | 4.69 |  |  |  |
| Cc1ccc(-c2cccc3c(C(=O)NCCCN4CCC(N5CCCCC5)CC4)cc(C)nc23)cc1 | 5.85 | 5.92 | 5.01 | 5.93 | 5.92 | 6.32 | ~6.13 | 4.11 | 5.46 |  |  |  |
| COc1ccc(-c2cncc(C(=O)NCC3CCN(CCN(C)C)CC3)c2)cc1 | 5.53 | 5.86 | > 10 | 5.86 | 5.77 |  |  |  |  | 5.64 | 5.51 |  |
| C[C@@H](CNC1CCN(C2CCN(C)CC2)CC1)c1cccc(Cl)c1 | 5.77 | 6.05 | > 10 | 6.16 | 6.14 |  |  | 9.55 | 5.09 | 5.86 |  | 633 nM [middle of 4 runs] |
| c1ccc(-c2ccnc(C3CCN(CC45CNCC4C5)CC3)n2)cc1 (stereo not drawn) | 5.54 | 5.72 | > 10 | 5.73 | 5.79 | 6.15 | 6.07 |  |  |  | 5.80 |  |
| c1ccc2c(CNCCC3CCN(c4ccncc4)CC3)csc2c1 | 5.13 | 5.74 | 12.3 | 5.84 | 5.73 | 6.35 | 6.38 | 4.25 | 5.29 |  |  |  |
| Cc1cnccc1N1CCCN(Cc2ccccc2OCCN2CCN(C)CC2)CC1 | 5.61 | 5.92 | > 10 | 5.91 | 5.85 | 6.17 | 6.12 and 6.04 |  |  |  |  |  |
| CN1CCN(CCCCNC2CC3CCC(C2)N3Cc2ccccc2)CC1 (stereo not drawn) | < 5.00 | 5.52 | > 10 | 5.74 | 5.52 |  | 5.97 |  | 4.64 and < 5.08 |  |  |  |
| Fc1ccc(-n2cc(CNCCC3CCN(c4ccncc4)CC3)cn2)cc1 | 5.45 | 5.76 | > 10 | 5.89 | 5.80 | 6.41 | ~6.41 | 5.11 | 5.23 |  |  |  |
| CCCc1cccc(CNC2CCN(C3CCN(C)CC3)CC2)c1 | 5.32 | 5.81 | > 10 | 5.86 | 5.74 |  |  | 11 | 5.10 | 5.86 | 5.85 | 620 nM [middle of 4 runs] |
| CN(C)C1(CNc2nc(C(F)(F)F)nc3cc(F)ccc23)CCCCCC1 | < 5.00 | 6.14 | > 10 | 5.78 | 5.99 | 6.34 | 6.44 | 8.91 | 5.03 | 5.76 | 5.75 |  |
| c1ccc(CNc2ccc(-c3noc(C45CCCN(CCC4)C5)n3)cn2)cc1 | 5.49 | 5.58 | > 10 | 5.70 | 5.68 | ~5.03 | 5.01 | 20.4 | 4.70 |  |  |  |

| SMILES | pIC50 (Plasmodium falciparum [1]) | pIC50 (Plasmodium falciparum [2]) | IC50 at 72 h [3] [µM] | pIC50 (Plasmodium falciparum [4]) | pIC50 (Plasmodium falciparum [5]) | pIC50 (Plasmodium falciparum [6]; [9]) | pIC50 (Plasmodium falciparum [6]; erythrocyte) | IC50 at 72 h [7] [µM] | pIC50 (HepG2) | pIC50 (Plasmodium falciparum [8]; [10]) | pIC50 (Plasmodium falciparum [8]; erythrocyte) | IC50 (Plasmodium falciparum [6]; erythrocyte) |
| --- | --- | --- | --- | --- | --- | --- | --- | --- | --- | --- | --- | --- |
| Cc1ccc(-c2cc(C(=O)NC3CCN(C4CCN(C)CC4)CC3)n[nH]2)cc1C | 5.81 | 5.86 | 7.76 | 6.02 | 6.02 | 6.21 | 6.22 | 5.93 | 5.15 | 5.92 | 5.91 |  |
| O=C(n1nnc2cc(Cl)c(Cl)cc21)C(F)(F)F | < 5.00 | 5.31 | > 10 | 6.02 | < 5.00 | 6.60 | 6.54 | 21 | 4.61 | 5.98 | 6.03 |  |
| O[C@@]1(c2c[nH]nn2)CCN(c2ccnc3cc(Cl)ccc23)C1 | 5.29 | 5.29 | > 10 | 5.42 | 5.56 |  |  |  |  |  |  |  |
| O=C(Nc1cnc2c(c1)COCC2)c1cc2c(OC(F)(F)F)cccc2[nH]1 | 6.02 | 5.81 | > 10 | 5.66 | 6.17 |  |  |  |  |  |  |  |
| CCN1CCN([C@H]2CCN(c3ccnc4ccncc34)C2)CC1 | 5.70 | 5.94 | > 10 | 5.95 | 5.88 |  |  |  |  |  |  |  |
| Cc1cc(O)c(Cl)cc1-c1ccc2nccc(N)c2c1 | < 5.00 | 6.42 | > 10 | 6.52 | 6.49 |  |  |  |  |  |  |  |
| Brc1cccc(NCCNC2CCN(Cc3cccnc3)CC2)c1 | 5.07 | 5.42 | > 10 | 5.43 | 5.42 |  |  |  |  |  |  |  |
| Cc1ccn2cc(-c3ccc(N4CCC(NCc5cccnc5)CC4)cc3)nc2c1 | < 5.00 | 5.28 | > 10 | 5.27 | 5.43 |  |  |  |  |  |  |  |
| Oc1ccc(OC(F)(F)F)cc1-c1ccc2nccn2n1 | 5.17 | 5.11 | > 10 | 5.20 | 5.50 |  |  |  |  |  |  |  |
| CN(C)C1CCN(CCN[C@H]2CCc3ccc(F)cc32)CC1 | < 5.00 | 5.88 | > 10 | 6.15 | 6.09 | < 5.08 | 4.83 and 4.90 and 4.80 | > 25 |  |  |  |  |
| CNc1nc(C)c(-c2ccnc(Nc3cccc(S(C)(=O)=O)c3)n2)s1 | < 5.00 | < 5.00 | 0.78 | 5.19 | 5.55 |  |  |  |  |  |  |  |
| COc1ccc2cc(-c3cc(N)ccn3)[nH]c2c1 | 5.22 | 5.34 | > 10 | 5.38 | 5.54 |  |  |  |  |  |  |  |
| c1ccc(CCC23CN(Cc4ccccn4)CC2CN(Cc2ccns2)C3)cc1 (stereo not drawn) | 5.19 | 5.45 | > 10 | 5.38 | 5.84 |  |  |  |  |  |  |  |
| Cc1ccc2c(-c3ccccc3CN3CCNCC3)cccc2n1 | < 5.00 | < 5.00 | > 10 | < 5.00 | 5.14 |  |  |  |  |  |  |  |
| COc1ccc(OC2CCN(C3CCCC3)CC2)c(C(=O)NCc2cccc3[nH]ccc23)c1 | < 5.00 | 5.27 | > 10 | 5.21 | 5.35 |  |  |  |  |  |  |  |
| CCc1ccc2ncnc(NCCCN3CCN(CCO)CC3)c2c1 | 5.01 | 5.20 | > 10 | 5.24 | 5.25 |  |  |  |  |  |  |  |
| CC(C)c1ccc(-c2noc(CCN3CCN(CCCN(C)C)CC3)n2)cc1 | < 5.00 | < 5.00 | > 10 | 5.07 | 5.10 |  |  |  |  |  |  |  |
| CC(C)CCOc1ccc2[nH]c(-c3cc(N4CCC[C@@H]4CS(C)(=O)=O)ccn3)cc2c1 | 5.73 | 5.95 | > 10 | 6.05 | 6.18 |  |  |  |  |  |  |  |
| Oc1cccc2c1CCC[C@@H]2NCc1ccc2occc2c1 | 5.34 | 5.03 | > 10 | 5.07 | 5.39 |  |  |  |  |  |  |  |
